In this test the target is Alpha-1B adrenergic receptor (Mesocricetus auratus) (UniProt P18841). As to the kind of experiment: Compound was tested for binding affinity against cloned Alpha-1B adrenergic receptor from hamster smooth muscle using radioligand ([3H]prazosin) binding assay.
Sequence of Alpha-1B adrenergic receptor (Mesocricetus auratus) (P18841 whole entry, looked up): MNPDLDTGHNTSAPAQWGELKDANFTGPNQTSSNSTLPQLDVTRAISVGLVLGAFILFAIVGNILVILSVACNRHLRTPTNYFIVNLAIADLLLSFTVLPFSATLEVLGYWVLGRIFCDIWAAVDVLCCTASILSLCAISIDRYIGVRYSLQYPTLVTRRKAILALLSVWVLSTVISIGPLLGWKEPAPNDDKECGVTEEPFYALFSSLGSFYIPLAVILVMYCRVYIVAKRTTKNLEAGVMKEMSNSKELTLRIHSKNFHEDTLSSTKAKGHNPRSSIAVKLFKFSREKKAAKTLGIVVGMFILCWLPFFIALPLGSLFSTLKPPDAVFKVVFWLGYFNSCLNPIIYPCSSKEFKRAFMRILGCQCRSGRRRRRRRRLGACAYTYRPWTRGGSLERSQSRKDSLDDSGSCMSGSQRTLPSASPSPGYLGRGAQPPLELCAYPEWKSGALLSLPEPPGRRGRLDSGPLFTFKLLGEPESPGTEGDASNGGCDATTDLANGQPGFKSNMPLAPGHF
In general, Ki refers to a measure of affinity in units of concentration, obtained from inhibition or displacement. Take `COc1cc2nc(N3CCN(C(=O)c4ccco4)[C@@H]4CCCC[C@@H]43)nc(N)c2cc1OC`: the Ki was determined as 0.692 nM.
As to `COc1cc2nc(N3CCN(C(=O)c4ccco4)C4CCCCC43)nc(N)c2cc1OC` (stereo not drawn) [(Cyclazosin)[4-(4-Amino-6,7-dimethoxy-quinazolin-2-yl)-octahydro-quinoxalin-1-yl]-furan-2-yl-methanone], affinity was put at a Ki of 0.589 nM.
In turn, `COc1cc2nc(N3CCN(C(=O)c4ccco4)[C@H]4CCCC[C@H]43)nc(N)c2cc1OC` [CYCLAZOSIN] returned a Ki of 0.309 nM.

The values above are taken from BindingDB's records for doi:10.1021/jm960510x (University of Camerino, 1996).
